Experimental data taken from patent publication US7112579B2, “26,27-Homologated-20-EPI-2-alkyl-19-nor-vitamin D compounds” (Wisconsin Alumni Research Foundation, priority 1997, dated 2006).
Entries after “also recorded” stand apart in the source; their conditions may differ. Where two headings read alike, the source gives them in different places. Blank lines part the entries; values can stand above or below the molecule they belong to.

What was measured:
[1] = test system: serum calcium (bone calcium mobilization); experiment: Serum calcium (bone calcium mobilization), chronic doses 7 days i.p., vitamin D-deficient rats; assay type: in vivo, rat; conditions: for bone calcium mobilization (serum calcium) activity, in words: chronic 7 days, 130 and/or 260 pmol/day; for calcemic activity (intestinal calcium transport and bone calcium mobilization), in words: chronic doses, rats
Procedure: (§1) Male weanling rats were obtained from Sprague Dawley Co. (Indianapolis, Ind.) and fed a 0.47% calcium, 0.3% phosphorus vitamin D-deficient diet for 1 week and then given the same diet containing 0.02% calcium, 0.3% phosphorus for 2 weeks. During the last week they were given the indicated dose of compound by intraperitoneal injection in 0.1 ml 95% propylene glycol and 5% ethanol each day for 7 days. The control animals received only the 0.1 ml of 95% propylene glycol, 5% ethanol. Twenty-four hours after the last dose, the rats were sacrificed and intestinal calcium transport was determined by everted sac technique as previously described and serum calcium determined by atomic absorption spectrometry on a model 3110 Perkin Elmer instrument (Norwalk, Conn.). There were 5 rats per group and the values represent mean±SEM.
as §1, with “With respect to the data in Tables 3 and 4, male” for “Male”, “atormic” for “atomic”

[2] = target: T1, porcine intestinal vitamin D receptor (Sus scrofa, UniProt A3RGC1); experiment: Competitive binding to the porcine intestinal vitamin D receptor ([3H]-1,25-(OH)2-D3 displacement); design: species or system pig; conditions: for ability to bind the porcine intestinal vitamin D receptor, in words: FIGS. 1, 3 and 5, comparison in words; for VDR Binding ratio: analog average ED50 / ED50 for 1α,25-(OH)2D3; for EC50: concentration for 50% displacement of radiolabeled 1α,25-(OH)2D3, read-out: VDR Binding ED50
T1 construct: from tissue; host or cells: porcine intestine
T1 sequence (A3RGC1 1-427): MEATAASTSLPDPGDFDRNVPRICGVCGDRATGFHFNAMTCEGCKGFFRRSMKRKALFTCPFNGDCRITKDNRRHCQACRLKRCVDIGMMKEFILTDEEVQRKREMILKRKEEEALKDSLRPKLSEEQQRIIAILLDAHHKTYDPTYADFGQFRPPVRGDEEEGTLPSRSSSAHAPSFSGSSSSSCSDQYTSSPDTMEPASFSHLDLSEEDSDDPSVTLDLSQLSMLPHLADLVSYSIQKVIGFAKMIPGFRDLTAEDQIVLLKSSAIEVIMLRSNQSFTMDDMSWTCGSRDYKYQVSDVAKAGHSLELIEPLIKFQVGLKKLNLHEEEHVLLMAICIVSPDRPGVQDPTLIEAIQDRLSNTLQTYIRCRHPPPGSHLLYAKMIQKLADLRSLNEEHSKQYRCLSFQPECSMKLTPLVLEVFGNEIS

[3] = test system: intestinal calcium transport; experiment: Intestinal calcium transport (everted sac), chronic doses 7 days i.p., vitamin D-deficient rats; assay type: in vivo, rat; conditions: for intestinal calcium transport activity, in words: chronic 7 days, 130 and/or 260 pmol/day
Procedure: as §1
as §1, with “With respect to the data in Tables 3 and 4, male” for “Male”, “atormic” for “atomic”

[4] = test system: human promyelocyte HL-60 cells; experiment: Differentiation of HL-60 promyelocytes into monocytes (NBT reduction); assay type: cell-based; conditions: for HL-60 differentiation, more active than corresponding 2β-isomer: 12 vs 13, 18 vs 19; for induction of differentiation of HL-60 cells to monocytes, in words: FIGS. 2, 4, 6, comparison in words; for HL-60 Differentiation Activity ratio: analog average ED50 / ED50 for 1α,25-(OH)2D3; for HL-60 Differentiation ED50: concentration inducing 50% maturation (NBT)
From the text: In the next assay, the cellular activity of the synthesized compounds was established by studying their ability to induce differentiation of human promyelocyte HL-60 cells into monocytes.

[5] = test system: intestinal calcium transport; experiment: Support of intestinal calcium transport in vitamin D-deficient rats on a low-calcium diet (3 weeks), 7 daily i.p. doses; assay type: in vivo, rat
[6] = test system: bone calcium mobilization (serum Ca); experiment: Bone calcium mobilization (serum Ca) in vitamin D-deficient rats on a low-calcium diet (3 weeks), 7 daily i.p. doses; assay type: in vivo, rat
[7] = Table 4, 130 pmol/day/7 days i.p., mean±SEM
[8] = Table 4, 260 pmol/day/7 days i.p., mean±SEM
[9] = Table 4, 130 pmol/day/7 days i.p., mean±SEM, listed as 2β-Methyl-19-nor-1,25-(OH)2D3
[10] = Table 4, 260 pmol/day/7 days i.p., mean±SEM, listed as 2β-Methyl-19-nor-1,25-(OH)2D3
[11] = listed as 2β-methyl-19-nor-1,25-(OH)2D3
[12] = Table 3, 130 pmol/day/7 days i.p., mean±SEM
[13] = Table 3, 260 pmol/day/7 days i.p., mean±SEM
[14] = Table 5, 130 pmol/day/7 days i.p.
[15] = Table 5, 260 pmol/day/7 days i.p.
[16] = Table 5, 130 pmol/day/7 days i.p., listed as 2β-Hydroxymethyl-19-nor-20(S)-1,25-(OH)2D3
[17] = Table 5, 260 pmol/day/7 days i.p., listed as 2β-Hydroxymethyl-19-nor-20(S)-1,25-(OH)2D3
[18] = Table 7 panel 1, 32 pmol daily x 7 i.p.
[19] = Table 7 panel 1, 65 pmol daily x 7 i.p.
[20] = Table 7 panel 2, 65 pmol daily x 7 i.p.
[21] = Table 7 panel 2, 260 pmol daily x 7 i.p.
[22] = Table 9 panel 1, 32 pmol daily x 7 i.p.
[23] = Table 9 panel 1, 65 pmol daily x 7 i.p.

SMILES: CC1[C@H](O)CC(=C/C=C2\CCC[C@]3(C)[C@@H]([C@H](C)CCCC(C)(C)O)CC[C@@H]23)C[C@H]1O (stereo partly drawn) [Compound 12, 2α-methyl-19-nor-1,25-(OH)2D3]
Serum Calcium [1, 7]: 4.8 ± 0.2 mg/100 ml
Serum Calcium [1, 8]: 5.8 ± 0.5 mg/100 ml
bone calcium mobilization (serum calcium) activity, in words [1]: relatively strong bone calcium mobilization at both dose levels
ability to bind the porcine intestinal vitamin D receptor, in words [2]: about as active as 1α,25-(OH)2D3
Intestinal Calcium Transport (S/M) [3, 7]: 4.3 ± 1.0 S/M
Intestinal Calcium Transport (S/M) [3, 8]: 5.3 ± 1.3 S/M
intestinal calcium transport activity, in words [3]: some intestinal calcium transport activity
HL-60 differentiation, more active than corresponding 2β-isomer [4]: 100 times
induction of differentiation of HL-60 cells to monocytes, in words [4]: extremely potent

SMILES: CC1[C@H](O)CC(=C/C=C2\CCC[C@]3(C)[C@@H]([C@H](C)CCCC(C)(C)O)CC[C@@H]23)C[C@H]1O (stereo partly drawn) [Compound 13, 1α,25-Dihydroxy-2β-methyl-19-nor-vitamin D3]
Serum Calcium [1, 9]: 4.1 ± 0.1 mg/100 ml
Serum Calcium [1, 10]: 3.8 ± 0.2 mg/100 ml
bone calcium mobilization (serum calcium) activity, in words [1, 11]: little, if any
calcemic activity (intestinal calcium transport and bone calcium mobilization), in words [1]: lack of calcemic activity
receptor binding, less effective than 1α,25-(OH)2D3 ([2]; relative to 1α,25-(OH)2D3): 39 fold
Intestinal Calcium Transport (S/M) [3, 9]: 4.4 ± 0.8 S/M
Intestinal Calcium Transport (S/M) [3, 10]: 3.1 ± 0.9 S/M
intestinal calcium transport activity, in words [3, 11]: little, if any
induction of differentiation of HL-60 cells to monocytes, in words [4]: high potency in cellular differentiation

SMILES: CC(CCCC(C)(C)O)C1CCC2C(=CC=C3CC(O)C(C)C(O)C3)CCCC21C (stereo not drawn) [Compound 18, 2α-methyl-19-nor-20S-1,25-(OH)2D3]
Serum Calcium ([1]; Table 3, 130 pmol/day/7 days i.p., mean±SEM, listed as 2α-Methyl-19-nor-20(S)-1,25-(OH)2D3): 8.3 ± 0.7 mg/100 ml
Serum Calcium ([1]; Table 3, 130 pmol/day/7 days i.p., mean±SEM, listed as 2α-methyl-19-nor-20S-1,25-(OH)2D3): 8.3±0.7 mg/100 ml
Serum Calcium ([1]; Table 3, 260 pmol/day/7 days i.p., mean±SEM, listed as 2α-Methyl-19-nor-20(S)-1,25-(OH)2D3): 10.3 ± 0.11 mg/100 ml
Serum Calcium ([1]; Table 3, 260 pmol/day/7 days i.p., mean±SEM, listed as 2α-methyl-19-nor-20S-1,25-(OH)2D3): 10.3±0.11 mg/100 ml
bone calcium mobilization (serum calcium) activity, in words [1]: much higher than that of the native hormone
ability to bind the porcine intestinal vitamin D receptor, in words [2]: about as active as 1α,25-(OH)2D3
Intestinal Calcium Transport (S/M) [3, 12]: 12.9 ± 1.9 S/M
Intestinal Calcium Transport (S/M) [3, 13]: 8.4 ± 1.1 S/M
intestinal calcium transport activity, in words [3]: significant change in intestinal calcium transport at both the 260 pmol and the 130 pmol dose levels
HL-60 differentiation, more active than corresponding 2β-isomer [4]: 10 times
induction of differentiation of HL-60 cells to monocytes, in words [4]: extremely potent

SMILES: CC1C(O)CC(=CC=C2CCC[C@]3(C)[C@@H]([C@@H](C)CCCC(C)(C)O)CC[C@@H]23)CC1O (stereo partly drawn) [Compound 19, 20(S)-1α,25-Dihydroxy-2β-methyl-19-nor-vitamin D3]
Serum Calcium [1, 12]: 4.4 ± 0.1 mg/100 ml
Serum Calcium [1, 13]: 4.4 ± 0.1 mg/100 ml
bone calcium mobilization (serum calcium) activity, in words [1]: little, if any, bone mobilization activity
calcemic activity (intestinal calcium transport and bone calcium mobilization), in words [1]: lack of calcemic activity
ability to bind the porcine intestinal vitamin D receptor, in words [2]: about as active as 1α,25-(OH)2D3
Intestinal Calcium Transport (S/M) [3, 12]: 2.9 ± 0.3 S/M
Intestinal Calcium Transport (S/M) [3, 13]: 3.8 ± 0.1 S/M
intestinal calcium transport activity, in words [3]: little, if any, intestinal calcium transport activity
induction of differentiation of HL-60 cells to monocytes, in words [4]: high potency in cellular differentiation

SMILES: C[C@H](CCCC(C)(C)O)[C@H]1CC[C@H]2/C(=C/C=C3C[C@@H](O)C(CO)[C@H](O)C3)CCC[C@]12C (stereo partly drawn) [Compound 20, 1α,25-Dihydroxy-2α-(hydroxymethyl)-19-norvitamin D3]
ability to bind the porcine intestinal vitamin D receptor, in words [2]: about the same binding affinity as 23

More lines, main results first:

receptor binding, less effective than 2α-hydroxymethyl analog 20 ([2]; relative to 20): ca. 8 times
SMILES: CC(CCCC(C)(C)O)C1CCC2C(=CC=C3CC(O)C(CO)C(O)C3)CCCC21C (stereo not drawn) [Compound 21, 1α,25-Dihydroxy-2β-(hydroxymethyl)-19-norvitamin D3]

ability to bind the porcine intestinal vitamin D receptor, in words [2]: almost equivalent to 1α,25-(OH)2D3
SMILES: CC(CCCC(C)(C)O)C1CCC2C(=CC=C3CC(O)C(CO)C(O)C3)CCCC21C [Compound 22, 2α-Hydroxymethyl-19-nor-20(S)-1,25-(OH)2D3]
Serum Calcium [1, 14]: 4.0 ± 0.1 mg/100 ml
Serum Calcium [1, 15]: 3.9 ± 0.1 mg/100 ml
calcemic activity (intestinal calcium transport and bone calcium mobilization), in words [1]: relatively inactive; also recorded: lack of calcemic activity
Intestinal Calcium Transport (S/M) [3, 14]: 5.0 ± 0.3 S/M
Intestinal Calcium Transport (S/M) [3, 15]: 5.8 ± 0.4 S/M
induction of differentiation of HL-60 cells to monocytes, in words [4]: high potency in cellular differentiation

receptor binding, less potent than 22 and 1α,25-(OH)2D3 ([2]; relative to 22 and 1α,25-(OH)2D3): 6–8 ×
SMILES: CC(CCCC(C)(C)O)C1CCC2C(=CC=C3CC(O)C(CO)C(O)C3)CCCC21C [Compound 23, 20(S)-1α,25-Dihydroxy-2β-(hydroxymethyl)-19-norvitamin D3]
Serum Calcium [1, 16]: 3.6 ± 0.1 mg/100 ml
Serum Calcium [1, 17]: 3.5 ± 0.2 mg/100 ml
calcemic activity (intestinal calcium transport and bone calcium mobilization), in words [1]: relatively inactive; also recorded: lack of calcemic activity
Intestinal Calcium Transport (S/M) [3, 16]: 3.5 ± 0.7 S/M
Intestinal Calcium Transport (S/M) [3, 17]: 3.5 ± 0.3 S/M
induction of differentiation of HL-60 cells to monocytes, in words [4]: high potency in cellular differentiation

VDR Binding ratio ([2]; Table 6): 3.6
EC50 ([2]; Table 6): 3.1 nM
SMILES: CCC(O)(CC)CCCC(C)C1CCC2C(=CC=C3CC(O)C(C)C(O)C3)CCCC21C [Compound 36, 20(S)-1α,25-Dihydroxy-2α-methyl-26,27-dihomo-19-nor-vitamin D3]
Ca Transport S/M (mean ± SEM) [5, 18]: 5.8 ± 0.4^d^1 S/M
Ca Transport S/M (mean ± SEM) [5, 19]: 8.4 ± 0.8^d^2 S/M
HL-60 Differentiation Activity ratio ([4]; Table 6): 0.01
HL-60 Differentiation ED50 ([4]; Table 6): 0.06 nM
Serum Ca (mean ± SEM) [6, 18]: 5.9 ± 0.2^d^1
Serum Ca (mean ± SEM) [6, 19]: 9.3 ± 0.2^d^2

VDR Binding ratio ([2]; Table 6): 5.5
EC50 ([2]; Table 6): 4.8 nM
SMILES: CCC(O)(CC)CCCC(C)C1CCC2C(=CC=C3CC(O)C(C)C(O)C3)CCCC21C [Compound 37, 20(S)-1α,25-Dihydroxy-2β-methyl-26,27-dihomo-19-norvitamin D3]
Ca Transport S/M (mean ± SEM) [5, 20]: 4.7 ± 0.6^d^1 S/M
Ca Transport S/M (mean ± SEM) [5, 21]: 5.2 ± 0.6^d^2 S/M
HL-60 Differentiation Activity ratio ([4]; Table 6): 0.03
HL-60 Differentiation ED50 ([4]; Table 6): 0.11 nM
Serum Ca (mean ± SEM) [6, 20]: 5.0 ± 0.0^d^1
Serum Ca (mean ± SEM) [6, 21]: 9.9 ± 0.3^d^2

VDR Binding ratio ([2]; Table 8): 4.0
EC50 ([2]; Table 8): 3.5 nM
SMILES: CC1[C@H](O)CC(=C/C=C2\CCC[C@@]3(C)C2CCC3[C@@H](C)CCCC2(O)CCCC2)C[C@H]1O (stereo partly drawn) [Compound 48, 20(S)-1α,25-Dihydroxy-26,27-dimethylene-2α-methyl-19-norvitamin D3]
Ca Transport S/M (mean ± SEM) [5, 22]: 7.9 ± 1.0^d^1 S/M
Ca Transport S/M (mean ± SEM) [5, 23]: 9.0 ± 1.0^d^2 S/M
HL-60 Differentiation Activity ratio ([4]; Table 8): 0.01
HL-60 Differentiation ED50 ([4]; Table 8): 0.044 nM
Serum Ca (mean ± SEM) [6, 22]: 6.9 ± 0.5^d^1
Serum Ca (mean ± SEM) [6, 23]: 9.0 ± 0.3^d^2
